Source: patent US20240228555A9, “ANTIMICROBIAL PEPTIDOMIMETICS” (Basilea Pharmaceutica International AG, Allschwil, priority 2020, published 2024)
Where a SMILES comes first, the peptide text is derived from it. Bridges are numbered along the chain shown (N, C = ends). [ ]: non-standard residue; d: D form. Orn(iPr) = CC(C)NCCC[C@H](N)C(=O)O; Dab(iPr) = CC(C)NCC[C@H](N)C(=O)O; Hyp = O=C(O)[C@@H]1C[C@@H](O)CN1; Pen = CC(C)(S)[C@H](N)C(=O)O; dDab = NCC[C@@H](N)C(=O)O; Dab = NCC[C@H](N)C(=O)O

Tests used:
[1] = tested on: Escherichia coli ATCC 25922; settings: ATCC 25922
Outline: (§1)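 Activity is measured against peptides serially diluted two-fold in water with 0.002% final Polysorbate 80. The cells are in cation-adjusted MHII broth at roughly 5×10^5 CFU/mL, prepared from a 0.5 McFarland suspension in 0.85% NaCl.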

[2] = tested on: Escherichia coli MCR-1 Af 45; settings: Mueller-Hinton broth II, no visible growth after 18-20 hours at 35° C.
Outline: as §1

[3] = tested on: Klebsiella pneumoniae SSI3010; settings: SSI3010
Outline: as §1

[4] = tested on: human red blood cells (hRBC); assay type: cell-based; settings: red cells of human, 1 h, 0.2 g/L
Outline: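 PBS-washed human erythrocytes (20% v/v) were incubated with compounds at 200 μg/mL for 1 h at 37° C with shaking. Supernatant OD540 was read after 8-fold dilution; hemolysis % = OD540 peptide / OD540 of the 100% lysis control (2.5% Triton X-100 in H2O) ×100, with PBS as 0%.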

| SMILES | Escherichia coli ATCC 25922 MIC [1] [µg/mL] | Escherichia coli MCR-1 Af 45 MIC [2] [µg/mL] | Klebsiella pneumoniae SSI3010 MIC [3] [µg/mL] | Hemolysis at 0.2 g/L [4] [%] |
| --- | --- | --- | --- | --- |
| CC[C@H](C)[C@H](NC(=O)[C@@H]1C[C@@H](O)CN1C(=O)[C@@H](N)C(C)C)C(=O)N[C@@H](CCN)C(=O)N[C@@H](Cc1ccc(O)cc1)C(=O)N[C@@H]1C(=O)N[C@@H](CC(N)=O)C(=O)N[C@@H](CCCNC(=N)N)C(=O)N[C@@H](CCN)C(=O)N[C@@H]([C@@H](C)O)C(=O)N[C@H](CCN)C(=O)N[C@@H](CCCNC(N)=O)C(=O)N[C@H](C(=O)N[C@@H](CCN)C(=O)N[C@H](C(=O)N[C@@H](Cc2ccc(O)cc2)C(=O)O)[C@@H](C)O)CSSC1(C)C [Example 113, Val-Hyp-Ile-Dab-Tyr-Pen-Asn-Arg-Dab-Thr-^DDab-Cit-Cys-Dab-Thr-Tyr] (HELM PEPTIDE1{V.[Hyp].I.[Dab].Y.[Pen].N.R.[Dab].T.[NCC[C@@H](N[*:1])C(=O)[*:2]].[Cit].C.[Dab].T.Y}$PEPTIDE1,PEPTIDE1,6:R3-13:R3$$$V2.0) | 0.125 | 0.125 | 0.25 | <1 |
| CC[C@H](C)[C@H](NC(=O)[C@@H](NC(=O)[C@@H]1C[C@@H](O)CN1C(=O)[C@@H](N)C(C)C)[C@@H](C)CC)C(=O)N[C@@H](Cc1ccc(O)cc1)C(=O)N[C@@H]1C(=O)N[C@@H](CC(N)=O)C(=O)N[C@@H](CCCNC(=N)N)C(=O)N[C@@H](CCN)C(=O)N[C@@H]([C@@H](C)O)C(=O)N[C@H](CCN)C(=O)N[C@@H](CCCNC(N)=O)C(=O)N[C@H](C(=O)N[C@@H](CCN)C(=O)N[C@@H](CCCNC(=N)N)C(=O)N[C@@H](Cc2ccc(O)cc2)C(=O)O)CSSC1(C)C [Example 98, Val-Hyp-Ile-Ile-Tyr-Pen-Asn-Arg-Dab-Thr-^DDab-Cit-Cys-Dab-Arg-Tyr] (HELM PEPTIDE1{V.[Hyp].I.I.Y.[Pen].N.R.[Dab].T.[NCC[C@@H](N[*:1])C(=O)[*:2]].[Cit].C.[Dab].R.Y}$PEPTIDE1,PEPTIDE1,6:R3-13:R3$$$V2.0) | 0.25 | 0.25 | 0.5 | <1 |
| CC[C@H](C)[C@H](NC(=O)[C@@H](NC(=O)[C@@H]1C[C@@H](O)CN1C(=O)[C@@H](N)C(C)C)[C@@H](C)CC)C(=O)N[C@@H](Cc1ccc(O)cc1)C(=O)N[C@@H]1C(=O)N[C@@H](CC(N)=O)C(=O)N[C@@H](CCCNC(=N)N)C(=O)N[C@@H](CCCN)C(=O)N[C@@H]([C@@H](C)O)C(=O)N[C@H](CCN)C(=O)N[C@@H]([C@@H](C)CC)C(=O)N[C@H](C(=O)N[C@@H](CCN)C(=O)N[C@@H](CCCNC(=N)N)C(=O)N[C@@H](Cc2ccc(O)cc2)C(=O)O)CSSC1(C)C [Example 121, Val-Hyp-Ile-Ile-Tyr-Pen-Asn-Arg-Orn-Thr-^DDab-Ile-Cys-Dab-Arg-Tyr] (HELM PEPTIDE1{V.[Hyp].I.I.Y.[Pen].N.R.[Orn].T.[NCC[C@@H](N[*:1])C(=O)[*:2]].I.C.[Dab].R.Y}$PEPTIDE1,PEPTIDE1,6:R3-13:R3$$$V2.0) | 0.25 | 0.25 | 0.5 | <1 |
| CC[C@H](C)[C@H](NC(=O)[C@@H](NC(=O)[C@@H]1C[C@@H](O)CN1C(=O)[C@@H](N)C(C)C)[C@@H](C)CC)C(=O)N[C@@H](Cc1ccc(O)cc1)C(=O)N[C@@H]1C(=O)N[C@@H](CC(N)=O)C(=O)N[C@@H](CCCNC(=N)N)C(=O)N[C@@H](CCN)C(=O)N[C@@H](CO)C(=O)N[C@H](CCN)C(=O)N[C@@H]([C@@H](C)CC)C(=O)N[C@H](C(=O)N[C@@H](CCN)C(=O)N[C@@H](CCN)C(=O)N[C@@H](Cc2ccc(O)cc2)C(=O)O)CSSC1(C)C [Example 84, Val-Hyp-Ile-Ile-Tyr-Pen-Asn-Arg-Dab-Ser-^DDab-Ile-Cys-Dab-Dab-Tyr] (HELM PEPTIDE1{V.[Hyp].I.I.Y.[Pen].N.R.[Dab].S.[NCC[C@@H](N[*:1])C(=O)[*:2]].I.C.[Dab].[Dab].Y}$PEPTIDE1,PEPTIDE1,6:R3-13:R3$$$V2.0) | 0.25 | 0.25 | 0.5 | <1 |
| CC[C@H](C)[C@H](NC(=O)[C@@H]1C[C@@H](N)CN1C(=O)[C@@H](N)C(C)C)C(=O)N[C@H](C(=O)N[C@@H](Cc1ccc(O)cc1)C(=O)N[C@@H]1C(=O)N[C@@H](CC(N)=O)C(=O)N[C@@H](CCCNC(=N)N)C(=O)N[C@@H](CCN)C(=O)N[C@@H]([C@@H](C)O)C(=O)N[C@H](CCN)C(=O)N[C@@H](CCCCN)C(=O)N[C@H](C(=O)N[C@@H](CCN)C(=O)N[C@H](C(=O)N[C@@H](Cc2ccc(O)cc2)C(=O)O)[C@@H](C)O)CSSC1(C)C)[C@@H](C)O [Example 120, Val-Pro((4R)NH2)-Ile-Thr-Tyr-Pen-Asn-Arg-Dab-Thr-^DDab-Lys-Cys-Dab-Thr-Tyr] (HELM PEPTIDE1{V.[N[C@@H]1C[C@@H](C(=O)[*:2])N([*:1])C1].I.T.Y.[Pen].N.R.[Dab].T.[NCC[C@@H](N[*:1])C(=O)[*:2]].K.C.[Dab].T.Y}$PEPTIDE1,PEPTIDE1,6:R3-13:R3$$$V2.0) | 0.25 | 0.125 | 0.5 | <1 |
| CC[C@H](C)[C@H](NC(=O)[C@@H]1C[C@@H](O)CN1C(=O)[C@@H](N)C(C)C)C(=O)N[C@H](C(=O)N[C@@H](Cc1ccc(O)cc1)C(=O)N[C@@H]1C(=O)N[C@@H](CC(N)=O)C(=O)N[C@@H](CCCNC(=N)N)C(=O)N[C@@H](CCNC(C)C)C(=O)N[C@@H]([C@@H](C)O)C(=O)N[C@H](CCN)C(=O)N[C@@H](CCCCN)C(=O)N[C@H](C(=O)N[C@@H](CCNC(C)C)C(=O)N[C@@H](CCCNC(=N)N)C(=O)N[C@@H](Cc2ccc(O)cc2)C(=O)O)CSSC1(C)C)[C@@H](C)O [Example 135, Hyp-Ile-Thr-Tyr-Pen-Asn-Arg-Dab(iPr)-Thr-^DDab-Lys-Cys-Dab(iPr)-Arg-Tyr] (H-V[Hyp]ITY[Pen]NR[Dab(iPr)]T[dDab]KC[Dab(iPr)]RY-OH; disulfide 6-13) | 0.25 | 0.25 | 0.5 | <1 |
| CC[C@H](C)[C@H](NC(=O)[C@@H]1C[C@@H](O)CN1C(=O)[C@@H](N)C(C)C)C(=O)N[C@H](C(=O)N[C@@H](Cc1ccc(O)cc1)C(=O)N[C@@H]1C(=O)N[C@@H](CC(N)=O)C(=O)N[C@@H](CCCNC(=N)N)C(=O)N[C@@H](CCNC(C)C)C(=O)N[C@@H]([C@@H](C)O)C(=O)N[C@H](CCN)C(=O)N[C@@H](CCCCN)C(=O)N[C@H](C(=O)N[C@@H](CCN)C(=O)N[C@@H](CCCNC(C)C)C(=O)N[C@@H](Cc2ccc(O)cc2)C(=O)O)CSSC1(C)C)[C@@H](C)O [Example 134, Hyp-Ile-Thr-Tyr-Pen-Asn-Arg-Dab(iPr)-Thr-^DDab-Lys-Cys-Dab-Orn(iPr)-Tyr] (H-V[Hyp]ITY[Pen]NR[Dab(iPr)]T[dDab]KC[Dab][Orn(iPr)]Y-OH; disulfide 6-13) | 0.125 | 0.25 | 0.5 | 1 |
| CC[C@H](C)[C@H](NC(=O)[C@@H]1C[C@@H](N)CN1C(=O)[C@@H](N)C(C)C)C(=O)N[C@H](C(=O)N[C@@H](Cc1ccc(O)cc1)C(=O)N[C@@H]1C(=O)N[C@@H](CC(N)=O)C(=O)N[C@@H](CCCNC(=N)N)C(=O)N[C@@H](CCN)C(=O)N[C@@H]([C@@H](C)O)C(=O)N[C@H](CCN)C(=O)N[C@@H](CCCCN)C(=O)N[C@H](C(=O)N[C@@H](CO)C(=O)N[C@@H](CCCNC(=N)N)C(=O)N[C@@H](Cc2ccc(O)cc2)C(=O)O)CSSC1(C)C)[C@@H](C)O [Example 110, Val-Pro((4R)NH2)-Ile-Thr-Tyr-Pen-Asn-Arg-Dab-Thr-^DDab-Lys-Cys-Ser-Arg-Tyr] (HELM PEPTIDE1{V.[N[C@@H]1C[C@@H](C(=O)[*:2])N([*:1])C1].I.T.Y.[Pen].N.R.[Dab].T.[NCC[C@@H](N[*:1])C(=O)[*:2]].K.C.S.R.Y}$PEPTIDE1,PEPTIDE1,6:R3-13:R3$$$V2.0) | 0.5 | 0.125 | 0.5 | <1 |
| CC[C@H](C)[C@H](NC(=O)[C@@H]1C[C@@H](O)CN1C(=O)[C@@H](N)C(C)C)C(=O)N[C@H](C(=O)N[C@@H](Cc1ccc(O)cc1)C(=O)N[C@@H]1C(=O)N[C@@H](CC(N)=O)C(=O)N[C@@H](CCCNC(=N)N)C(=O)N[C@@H](CCN)C(=O)N[C@@H]([C@@H](C)O)C(=O)N[C@H](CCN)C(=O)N[C@@H](CCCCN)C(=O)N[C@H](C(=O)N[C@@H](CCN)C(=O)N[C@@H](CCCNC(=N)N)C(=O)N[C@@H](Cc2ccc(O)cc2)C(=O)O)CSSC1(C)C)C(C)(C)O [Example 126, Val-Hyp-Ile-Val(3OH)-Tyr-Pen-Asn-Arg-Dab-Thr-^DDab-Lys-Cys-Dab-Arg-Tyr] (HELM PEPTIDE1{V.[Hyp].I.[CC(C)(O)[C@H](N[*:1])C(=O)[*:2]].Y.[Pen].N.R.[Dab].T.[NCC[C@@H](N[*:1])C(=O)[*:2]].K.C.[Dab].R.Y}$PEPTIDE1,PEPTIDE1,6:R3-13:R3$$$V2.0) | 0.0625 | 0.0625 | 0.125 | <1 |
